According to patent US20170129916A1, “NOVEL BETULINIC PROLINE IMIDAZOLE DERIVATIVES AS HIV INHIBITORS” (HETERO RESEARCH FOUNDATION, priority 2014, published 2017):

Assay: Single dose oral pharmacokinetic study
Format: in vivo
Details: mouse, mice, 30 mg/kg, plasma; for AUC(0-t): read-out: Mice oral PK @30 mg/kg AUC 0-t; for Cmax: read-out: Mice oral PK @30 mg/kg Cmax
Experimental: The test item was administered through oral route to animals (rat/mice) at 30 mg/kg dose in a suitable vehicle at 10 ml/kg dose volume. Blood samples (˜50 uL at each time point) were collected from retro-orbital plexus using K3 EDTA as anticoagulant in eppend; orf tubes at defined time intervals under light ether anesthesia. The samples were centrifuged at 3500×g to separate plasma and stored at −80° C. until analysis.
Sample analysis: Test samples were analyzed using LC-MS-MS after developing fit-for-purpose method for each of test compound.

SMILES	AUC(0-t)	Cmax
Cc1nnc(C(C)C)n1C1CCN(C(=O)[C@]23CC[C@@H](C4(C)CC4)[C@@H]2[C@H]2CC[C@@H]4[C@@]5(C)CC[C@H](OC(=O)CC(C)(C)C(=O)O)C(C)(C)[C@@H]5CC[C@@]4(C)[C@]2(C)CC3)CC1 [Compound 69, 4-(((1R,3aS,5aR,5 bR,7aR,9S,11aR,11bR,13aR,13bR)-3a-(4-(3-isopropyl-5-methyl-4H-1,2,4-triazol-4-yl)piperidine-1-carbonyl)-5a,5b,8,8,11a-pentamethyl-1-(1-methylcyclopropyl)icosahydro-1H-cyclopenta[a]chrysen-9-yl)oxy)-2,2-dimethyl-4-oxobutanoic acid]	238 µg·h/mL	16700 ng/mL
COCCOc1ccc(-c2cnc([C@@H]3CCCN3C(=O)[C@]34CC[C@@H](C5(C)CC5)[C@@H]3[C@H]3CC[C@@H]5[C@@]6(C)CC[C@H](OC(=O)[C@H]7C[C@@H](C(=O)O)C7(C)C)C(C)(C)[C@@H]6CC[C@@]5(C)[C@]3(C)CC4)[nH]2)cc1 [Compound 52, (1R,3S)-3-((((1R,3aS,5aR,5bR,7aR,9S,11aR,11bR,13aR,13bR)-3a-((S)-2-(5-(4-(2-methoxyethoxy)phenyl)-1H-imidazol-2-yl)pyrrolidine-1-carbonyl)-5a,5b,8,8,11a-pentamethyl-1-(1-methylcyclopropyl)icosahydro-1H-cyclopenta[a]chrysen-9-yl)oxy)carbonyl)-2,2-dimethylcyclobutane-1-carboxylic acid]	273 µg·h/mL	9610 ng/mL
C=C(C)[C@@H]1CC[C@]2(C(=O)N3C4CCC3CC(n3c(C)nnc3C(C)C)C4)CC[C@]3(C)[C@H](CC[C@@H]4[C@@]5(C)CC[C@H](OC(=O)[C@H]6C[C@@H](C(=O)O)C6(C)C)C(C)(C)[C@@H]5CC[C@]43C)[C@@H]12 (stereo partly drawn) [Compound 38, (1R,3S)-3-((((1R,3aS,5aR,5bR,7aR,9S,11aR,11bR,13aR,13bR)-3a-((1R,3R,5S)-3-(3-isopropyl-5-methyl-4H-1,2,4-triazol-4-yl)-8-azabicyclo[3.2.1]octane-8-carbonyl)-5a,5b,8,8,11a-pentamethyl-1-(prop-1-en-2-yl)icosahydro-1H-cyclopenta[a]chrysen-9-yl)oxy)carbonyl)-2,2-dimethylcyclobutane-1-carboxylic acid]	127 µg·h/mL	7350 ng/mL
C=C(C)[C@@H]1CC[C@]2(C(=O)N3C4CCC3CC(n3c(C)nnc3C(C)C)C4)CC[C@]3(C)[C@H](CC[C@@H]4[C@@]5(C)CC[C@H](OC(=O)CC(C)(C)C(=O)O)C(C)(C)[C@@H]5CC[C@]43C)[C@@H]12 (stereo partly drawn) [Compound 49, 4-(((1R,3aS,5aR,5bR,7aR,9S,11aR,11bR,13aR,13bR)-3a-((1R,3R,5S)-3-(3-isopropyl-5-methyl-4H-1,2,4-triazol-4-yl)-8-azabicyclo[3.2.1]octane-8-carbonyl)-5a,5b,8,8,11a-pentamethyl-1-(prop-1-en-2-yl)icosahydro-1H-cyclopenta[a]chrysen-9-yl)oxy)-2,2-dimethyl-4-oxobutanoic acid]	111 µg·h/mL	10800 ng/mL
C=C(C)[C@@H]1CC[C@]2(C(=O)N3CCC[C@H]3c3ncc(-c4ccccn4)[nH]3)CC[C@]3(C)[C@H](CC[C@@H]4[C@@]5(C)CC[C@H](OC(=O)CC(C)(C)C(=O)O)C(C)(C)[C@@H]5CC[C@]43C)[C@@H]12 [Compound 39, 2,2-dimethyl-4-oxo-4-(((1R,3aS,5aR,5bR,7aR,9S,11aR,11bR,13aR,13bR)-5a,5b,8,8,11a-pentamethyl-1-(prop-1-en-2-yl)-3a-((S)-2-(5-(pyridin-2-yl)-1H-imidazol-2-yl)pyrrolidine-1-carbonyl)icosahydro-1H-cyclopenta[a]chrysen-9-yl)oxy)butanoic acid]	80.9 µg·h/mL	5690 ng/mL
C=C(C)[C@@H]1CC[C@]2(C(=O)N3CCC[C@H]3c3ncc(-c4ccc(F)cc4)[nH]3)CC[C@]3(C)[C@H](CC[C@@H]4[C@@]5(C)CC[C@H](OC(=O)CC(C)(C)CC(=O)O)C(C)(C)[C@@H]5CC[C@]43C)[C@@H]12 [Compound 41, 5-(((1R,3aS,5aR,5bR,7aR,9S,11aR,11bR,13aR,13bR)-3a-((S)-2-(5-(4-fluorophenyl)-1H-imidazol-2-yl)pyrrolidine-1-carbonyl)-5a,5b,8,8,11a-pentamethyl-1-(prop-1-en-2-yl)icosahydro-1H-cyclopenta[a]chrysen-9-yl)oxy)-3,3-dimethyl-5-oxopentanoic acid]	258 µg·h/mL	14500 ng/mL
CC1([C@@H]2CC[C@]3(C(=O)N4CCC[C@H]4c4ncc(-c5ccc[n+]([O-])c5)[nH]4)CC[C@]4(C)[C@H](CC[C@@H]5[C@@]6(C)CC[C@H](OC(=O)[C@H]7C[C@@H](C(=O)O)C7(C)C)C(C)(C)[C@@H]6CC[C@]54C)[C@@H]23)CC1 [Compound 53, 3-(2-((S)-1-((1R,3aS,5aR,5bR,7aR,9S,11aR,11bR,13aR,13bR)-9-(((1S,3R)-3-carboxy-2,2-dimethylcyclobutane-1-carbonyl)oxy)-5a,5b,8,8,11a-pentamethyl-1-(1-methylcyclopropyl)icosahydro-1H-cyclopenta[a]chrysene-3a-carbonyl)pyrrolidin-2-yl)-1H-imidazol-5-yl)pyridine-1-oxide]	471 µg·h/mL	14700 ng/mL
C=C(C)[C@@H]1CC[C@]2(C(=O)N3CCC[C@H]3c3ncc(-c4ccc(C(F)(F)F)cc4)[nH]3)CC[C@]3(C)[C@H](CC[C@@H]4[C@@]5(C)CC[C@H](OC(=O)[C@H]6C[C@@H](C(=O)O)C6(C)C)C(C)(C)[C@@H]5CC[C@]43C)[C@@H]12 [Compound 6, (1R,3S)-2,2-dimethyl-3-((((1R,3aS,5aR,5bR,7aR,9S,11aR,11bR,13aR,13bR)-5a,5b,8,8,11a-pentamethyl-1-(prop-1-en-2-yl)-3a-((S)-2-(5-(4-(trifluoromethyl)phenyl)-1H-imidazol-2-yl)pyrrolidine-1-carbonyl)icosahydro-1H-cyclopenta[a]chrysen-9-yl)oxy)carbonyl)cyclobutane-1-carboxylic acid]	93.4 µg·h/mL	3100 ng/mL
C=C(C)[C@@H]1CC[C@]2(C(=O)N3CCC[C@H]3c3ncc(-c4ccc(Cl)cc4)[nH]3)CC[C@]3(C)[C@H](CC[C@@H]4[C@@]5(C)CC[C@H](OC(=O)[C@H]6C[C@@H](C(=O)O)C6(C)C)C(C)(C)[C@@H]5CC[C@]43C)[C@@H]12 [Compound 19, (1R,3S)-3-((((1R,3aS,5aR,5bR,7aR,9S,11aR,11bR,13aR,13bR)-3a-((S)-2-(5-(4-chlorophenyl)-1H-imidazol-2-yl)pyrrolidine-1-carbonyl)-5a,5b,8,8,11a-pentamethyl-1-(prop-1-en-2-yl)icosahydro-1H-cyclopenta[a]chrysen-9-yl)oxy)carbonyl)-2,2-dimethylcyclobutane-1-carboxylic acid]	183 µg·h/mL	7500 ng/mL
Cc1nnc(C(C)C)n1C1CCN(C(=O)[C@]23CC[C@@H](C4(C)CC4)[C@@H]2[C@H]2CC[C@@H]4[C@@]5(C)CC[C@H](OC(=O)[C@H]6C[C@@H](C(=O)O)C6(C)C)C(C)(C)[C@@H]5CC[C@@]4(C)[C@]2(C)CC3)CC1 [Compound 58, (1R,3S)-3-((((1R,3aS,5aR,5bR,7aR,9S,11aR,11bR,13aR,13bR)-3a-(4-(3-isopropyl-5-methyl-4H-1,2,4-triazol-4-yl)piperidine-1-carbonyl)-5a,5b,8,8,11a-pentamethyl-1-(1-methylcyclopropyl)icosahydro-1H-cyclopenta[a]chrysen-9-yl)oxy)carbonyl)-2,2-dimethylcyclobutane-1-carboxylic acid]	104 µg·h/mL	3050 ng/mL
Cc1nnc(C(C)C)n1C1CC2CCC(C1)N2C(=O)[C@]12CC[C@@H](C3(C)CC3)[C@@H]1[C@H]1CC[C@@H]3[C@@]4(C)CC[C@H](OC(=O)CC(C)(C)C(=O)O)C(C)(C)[C@@H]4CC[C@@]3(C)[C@]1(C)CC2 (stereo partly drawn) [Compound 71, 4-(((1R,3aS,5aR,5bR,7aR,9S,11aR,11bR,13aR,13bR)-3a-((R,3R,5S)-3-(3-isopropyl-5-methyl-4H-1,2,4-triazol-4-yl)-8-azabicyclo[3.2.1]octane-8-carbonyl)-5a,5b,8,8,11a-pentamethyl-1-(1-methylcyclopropyl)icosahydro-1H-cyclopenta[a]chrysen-9-yl)oxy)-2,2-dimethyl-4-oxobutanoic acid]	298 µg·h/mL	15800 ng/mL
Cc1nnc(C(C)C)n1C1CC2CCC(C1)N2C(=O)[C@]12CC[C@@H](C3(C)CC3)[C@@H]1[C@H]1CC[C@@H]3[C@@]4(C)CC[C@H](OC(=O)[C@H]5C[C@@H](C(=O)O)C5(C)C)C(C)(C)[C@@H]4CC[C@@]3(C)[C@]1(C)CC2 (stereo partly drawn) [Compound 60, (1R,3S)-3-((((1R,3aS,5aR,5bR,7aR,9S,11aR,11bR,13aR,13bR)-3a-((1R,3R,5S)-3-(3-isopropyl-5-methyl-4H-1,2,4-triazol-4-yl)-8-azabicyclo[3.2.1]octane-8-carbonyl)-5a,5b,8,8,11a-pentamethyl-1-(1-methylcyclopropyl)icosahydro-1H-cyclopenta[a]chrysen-9-yl)oxy)carbonyl)-2,2-dimethylcyclobutane-1-carboxylic acid]	295 µg·h/mL	6520 ng/mL
